These results are taken from patent publication US20070293486A1, “Alpha-Keto Carbonyl Calpain Inhibitors” (SANTHERA PHARMACEUTICALS (SCHWEIZ) AG, priority 2004, published 2007).

Structures are written as SMILES.

In data set [1] the test system is cellular calpains in C2C12 myoblasts. Briefly: Calpain Inhibition Assay in C2C12 Myoblasts. The data set is classed as cell-based. The settings on record: read-out: Calp I IC50 Myoblast. As to the method: This assay is aimed at monitoring the ability of the substance to inhibit cellular calpains. C2C12 myoblasts are grown in 96-well plates in growth medium (DMEM, 20% foetal calf serum) until they reach confluency. The growth medium is then replaced by fusion medium (DMEM, 5% horse serum). 24 hours later the fusion medium is replaced by fusion medium containing the test substances dissolved in 1 μl DMSO. After 2 hours of incubation at 37° C. the cells are loaded with the calpain fluorogenic substrate Suc-Leu-Tyr-AMC at 400 μM in 50 μl of a reaction buffer containing 135 mM NaCl; 5 mM KCl; 4 mM CaCl2; 1 mM MgCl2; 10 mM Glucose; 10 mM HEPES pH 7.25 for 20 min at room temperature. The calcium influx, necessary to activate the cellular calpains, is evoked by the addition of 50 μl reaction buffer containing 20 μM of the calcium ionophore Br-A-23187 (Molecular Probes). The fluorescence of the cleavage product AMC is measured as described above during 60 min at 37° C. at intervals of 1 min. The IC50 values are determined as described above. Comparison of the IC50 determined in the enzymatic calpain inhibition assay to the IC50 determined in the C2C12 myoblasts calpain inhibition assay, allows to evaluate the cellular uptake or the membrane permeability of the substance.

In data set [2] the target is T1, 20S Proteasome (Oryctolagus cuniculus, UniProt G1T4Q9).
T1 sequence (G1T4Q9 1-263): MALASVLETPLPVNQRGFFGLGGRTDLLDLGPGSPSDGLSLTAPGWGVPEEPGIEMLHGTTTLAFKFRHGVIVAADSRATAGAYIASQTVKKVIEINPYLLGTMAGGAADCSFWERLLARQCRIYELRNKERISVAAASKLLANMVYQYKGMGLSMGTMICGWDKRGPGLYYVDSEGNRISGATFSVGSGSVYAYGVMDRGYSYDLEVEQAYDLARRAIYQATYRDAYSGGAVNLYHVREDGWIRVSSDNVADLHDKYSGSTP
In words: 20S Proteasome Assay. The data set is classed as biochemical. The note with it: Rabbit, read-out: 20S Prot IC50. Here is the method:
25 μl of a reaction buffer containing 400 μM of the fluorogenic substrate Suc-Leu-Leu-Val-Tyr-AMC (Bachem) are dispensed per well of a white microtiter plate. Test compounds dissolved in 0.5 μl DMSO are added. To start the reaction; 25 μl of reaction buffer containing 35 ng of enzyme (20S Proteasome, Rabbit, Calbiochem) are added. The increase in fluorescence (excitation at 360 nm; emission at 440 nm) is measured over 30 min at 30° C. at 30″. The IC50's are then determined from the slopes.

For data set [3], the system named is mdx mouse. In words: Longterm treatment of mdx mice (muscle histology). The class given is in vivo. The settings on record: for adverse effects upon longterm treatment: longterm treatment every 2nd day i.p. As to the method: The mdx mouse is a well established animal model for Duchenne Muscular Dystrophy (Bulfield G., Siller W. G., Wight P. A., Moore K. J., X chromosome-linked muscular dystrophy (mdx) in the mouse, Proc. Natl. Acad. Sci. USA., 1984, 81(4), 1189-1192). Selected compounds were tested in longterm treatments of mdx mice, according to the procedures described below.
Mouse strains: C57BL/10scsn and C57BL/10scsn mdx mouse strains were purchased at The Jackson Laboratory (ME, USA) and bred inhouse. Mouse males were sacrificed at the age of 3 or 7 weeks by CO2 asphyxiation.
Treatment: Compounds were dissolved in 50% PEG, 50% saline solution and applied by i.p. injection.
Histology: Tibialis anterior (TA), quadriceps (Quad), and diaphragm (Dia) muscles were collected and mounted on cork supports using gum tragacanth (Sigma-Aldrich, Germany). The samples were snap-frozen in melting isopentane and stored at −80° C. 12 μm thick cryosections of the mid-belly region of muscles were prepared. For staining, sections were air dried and fixed with 4% PFA in PBS for 5 minutes, washed 3 times with PBS and incubated over night at 4° C. in PBS containing 2 μg/ml Alexa Fluor ™ 488 conjugated wheat-germ agglutinin (WGA-Alexa, Molecular Probes, Eugene, Oreg., USA) to stain membrane-bound and extracellular epitopes and 1 μg/ml 4′,6-diamidino-2-phenylindole (DAPI; Molecular Probes) to stain nuclei.
Image acquisition and analysis: Fluorescence microscopy images of both labels were acquired using a digital camera (ColorView II, Soft Imaging System, Münster, Germany) coupled to a fluorescence microscope (Vanox S, Olympus, Tokyo, Japan). Combination of these two stainings to a composite image, assembling of several images to a complete image of the entire muscle cross-section and further semi-automated analysis was performed using the image analysis program AnalySIS (Soft Imaging System). Image analysis of 1200-2900 muscle fibers in each section was performed in three steps: 1) determination of the muscle fiber boundaries, 2) determination of the muscle fiber size, and 3) determination of the percentage of muscle fibers containing centralized nuclei. Six different geometrical parameters were tested for the determination of the muscle fiber size: (a) the “minimal feret” (the minimum distance of parallel tangents at opposing borders of the muscle fiber), (b) the “area”, (c) the “minimal inner diameter” (the minimum diameter through the center of the muscle fiber), (d) the “minimal diameter” (the minimum diameter of a muscle fiber for angles in the range 0° through 179° with step width 1°, (e) the “minimal outer diameter” (the minimum diameter through the muscle fiber from outer border to outer border), and (f) the “perimeter”. The variance coefficient of the muscle fiber size is defined as follows: variance coefficient=(standard deviation of the muscle fiber size/mean of the muscle fiber size of the section)*[…]. For statistical analysis of different variance coefficient values Mann-Whitney U test was used.

Where [4] appears, read: 20 mg/kg every 2nd day i.p., 3 week old mice, 4 weeks treatment, diaphragm, vs vehicle mdx controls.

The term IC50 denotes the midpoint of a concentration-inhibition curve. With `CCNC(=O)C(=O)[C@H](Cc1ccc(Cl)cc1)NC(=O)[C@@H](NC(=O)[C@H](Cc1ccccc1)NC(=O)CCCCC1CCS[S+]1[O-])C(C)C` (some centres unmarked) [Example 2], the IC50 in data set [1] turned out to be 0.21 µM; in data set [2] it was 0.16 µM. In addition, the “decrease in the variance coefficient of the muscle fiber size in the Dia” value in data set [3] (setting [4]) came to 26%. Further, the “adverse effects upon longterm treatment” value in data set [3] was “No prominent adverse effects”.

With `CCNC(=O)C(=O)C(Cc1ccc(OC)cc1)NC(=O)C(CC(C)C)NC(=O)C(Cc1cccc2ccccc12)NC(=O)CCCCC1CCSS1` (centres unmarked) [Example 637], the IC50 in data set [1] and in data set [2] was 0.04 µM each time. Further, the “decrease in the variance coefficient of the muscle fiber size in the Dia” value in data set [3] (2 mg/kg every 2nd day i.p., diaphragm, vs vehicle mdx controls) came to 33%; in data set [3] (setting [4]), 34%. Further, in data set [3] (20 mg/kg every 2nd day i.p., diaphragm, vs vehicle mdx controls), the “reduction of the percentage of centralized nuclei in the Dia” value is recorded as 34%. The “decrease in the variance coefficient of the muscle fiber size in the Quad” value in data set [3] (20 mg/kg every 2nd day i.p., quadriceps, vs vehicle mdx controls) is 32%. Further, in data set [3], the “adverse effects upon longterm treatment” value is given as “No prominent adverse effects”.
